Assay [1] concerns G. clavigera WT. The assay is described as follows: Mycelium growth on MEA with monoterpenes. It counts as cell-based, Grosmannia clavigera. As to conditions: for growth delay of G. clavigera WT: 200 μL individual monoterpene or MT; for fungal growth rate, G. clavigera WT: 200 μL monoterpene, linear phase after delay. Here is the method: (§1) Mono- and diterpene treatments were performed on glass petri dishes with the mono- and diterpenes applied to filter paper that was placed in the cover of the petri dish, which was sealed by Duraseal film. Specifically, plugs of actively growing G. clavigera fungal cultures on MEA were transferred into the center of glass petri dishes containing yeast nitrogen base-complete medium (YNB-CM; 0.17% YNB without amino acids, 1.5% granulated agar, 1% maltose, 0.1% PHP, and 0.3% asparagine). Two (2×4 cm) strips of filter paper were placed inside the lid of the plate and 200 μL of individual mono- or diterpenes or a mixture of monoterpenes (MT) were added onto the filter paper. The glass plates were sealed with DuraSeal™ film (Laboratory Sealing Film, VWR, cat #89031-573) and incubated at ˜22° C. in a sealed glass container for 7 days or until the mycelium reached the edge of the plates. Colony diameters were measured daily.
(§2) Colony morphologies and growth rates were examined for G. clavigera WT and mutant Δgcabc-g1 grown on malt extract agar (MEA) in the presence and absence of 200 μL of a mixture of monoterpenes as described in Example 3.A.1. above. Fungal growth rates were calculated (mm/day). Mycelium growth rates were also determined in the presence or absence of 200 μL of individual monoterpenes, including R-(+)-limonene, 3-carene, α-pinene and β-pinene, or 200 μL of a mixture of monoterpenes (R-(+)-limonene, 3-carene, α-pinene and β-pinene at a ratio of 5:3:1:1). Fungal spores were incubated for 3 days on MEA overlaid with cellophane (Amersham Biosciences, cat #80611781); then the young mycelia were treated with individual monoterpenes or a mixture of monoterpenes (200 μL) for 3-4 days before being transferred onto YNB. In YNB, monoterpenes were provided on filter paper as described in Example 3.A.1. and if necessary were re-supplied biweekly until the mycelia covered at least half of the media surface (3-4 weeks). Colony diameters were measured daily. Fungal growth rates were calculated (mm/day). Results were calculated as the average of 5 replicates and standard deviation was calculated.

Assay [2] deals with mutant Δgcabc-g1 fungal spores. The assay can be described thus: Asexual spore germination and survival with monoterpenes. Format: cell-based, Grosmannia clavigera. Here is the method:
(§3) G. clavigera WT or mutant Δgcabc-g1 fungal spores were collected from 7-14 day old cultures grown on MEA (0.83% Oxoid™ malt extract agar and 0.75% technical agar, pH was adjusted to 5-6). Mycelium debris was removed by filtration (BD Falcon Cell Strainers; cat #08-771-1). Spore concentrations were determined using a haemocytometer and further diluted to ˜2 spores/μL. 100 μL of the spore suspension was spread on MEA in glass plates. For monoterpene treatment, two (2×4 cm) strips of filter paper were placed inside the lid of the plate and 200 μL of a mixture of monoterpenes were added onto the filter paper. For diterpene treatment, 100 μL of the spore suspension was spread on MEA containing 0.01% of a mixture of diterpenes (abietic acid, dehydroabietic acid and isopimaric acid). The glass plates were sealed with DuraSeal™ film (Laboratory Sealing Film, VWR, cat #89031-573) and incubated at ˜22° C. in a sealed glass container. The germinated spores were counted daily; at day 6 the monoterpenes were removed and the MEA plates were further incubated for 4 days to assess the survival of the spores.

For assay [3], the system named is G. clavigera WT fungal spores. The assay is described as above. It counts as cell-based, Grosmannia clavigera. The following applies: MEA, 200 μL monoterpene; for spore germination partially reduced, G. clavigera: 6 days, relative to non-treated control; for spore germination inhibition, G. clavigera: counted after 6 days. Here is the method: as §3
A further assay has as its system Wildtype G. clavigera. The assay is described as follows: Growth on YNB with monoterpenes as sole carbon source. The following applies: 200 μL, 4 weeks. Format: cell-based, Grosmannia clavigera. On the procedure:
(§4) Fungal spores were incubated for 3 days on 1% malt extract agar (MEA) overlaid with cellophane (Amersham Biosciences, cat #80611781), then the young mycelia were treated with a mixture of monoterpenes (200 μL) for 3-4 days before being transferred onto yeast nitrogen base (YNB) medium with a mixture of monoterpenes (MT) as sole carbon source (YNB+MT; […] YNB without amino acids, but with ammonium sulphate) in glass plates. The synthetic monoterpenoid blend contained R-(+)-limonene, 3-carene, α-pinene and β-pinene at a ratio of 5:3:1:1. If necessary monoterpenes were re-supplied biweekly until the mycelia covered at least half of the media surface (3-4 weeks). RNA-seq analysis was performed after 10 days. G. clavigera grown on YNB+1% mannose as the sole carbon source was used as a control.
(§5) Experiments were performed as described in Example 3.A.2. Growth of wildtype G. clavigera and the mutant Δgcabc-g1 was determined utilizing yeast nitrogen base (YNB)+either 10 μL or 200 μL of (+)-limonene, α-pinene or β-pinene. Growth was determined after 4 weeks. Monoterpenes were re-supplied every 2 weeks. Growth on YNB alone was used as a negative control. Growth on YNB+1% mannose was used as a positive control.

For assay [4], the system named is mutant Δgcabc-g1. Described as above. Format: cell-based, Grosmannia clavigera. Here is the method: as §4, §5
The next assay concerns Sc-ABC. The assay can be described thus: Yeast cell survival, dilution plate assay. The following applies: for Observation (B) Transformed Sc survival: GcABC-G1-dependent difference, Sc-ABC versus Sc-V; for relative inhibition of the yeast GcABC-G1 transformant by individual monoterpenoids: individual monoterpenoids compared; for Sc-ABC cells survived relative to Sc-V: one-hour treatment, 5 μL monoterpene, counted after 4 days. Format: cell-based, Saccharomyces cerevisiae. On the procedure: The survival of Sc-V and Sc-ABC with individual monoterpenes was shown using a dilution plate assay. Overnight yeast cultures grown in SG broth were diluted to an OD600 of 0.2 and further grown to an OD600 of 0.4 at 28° C. The yeast cells were diluted to an appropriate density that was spread on SG media in Petri dishes glass (10^5 per petri dish). The yeast cells were treated for one hour with a specific monoterpene (5 μL) diluted in 245 μL ethanol; the solution was applied on five small filter papers placed inside the lid and the glass plates were sealed with DuraSeal film. After one-hour incubation, the chemical was removed and plates were further incubated for 4 days at 28° C. The numbers of surviving cells with and without monoterpene treatments were counted.

In assay [5] the test system is mutant Δgcabc-g1. The assay is described as follows: Mycelium growth on MEA with monoterpenes. It counts as cell-based, Grosmannia clavigera. As to conditions: for growth delay of mutant Δgcabc-g1: 200 μL individual monoterpene or MT; for growth rate of mutant Δgcabc-g1 lower than G. clavigera WT / fungal growth rate, mutant Δgcabc-g1: 200 μL monoterpene; for fungal growth rate, mutant Δgcabc-g1: linear phase after delay. Here is the method:
as §1
Agrobacterium GV3101, a laboratory stock, was used to transform G. clavigera. The whole gene open reading frame (ORF) encoding GcABC-G1 in G. clavigera was replaced with the selective gene marker hygromycin B (hph). Gene replacement (deletion) was verified by PCR amplification of adjacent regions, target region and selective marker gene, and copy numbers were determined by southern blot. The G. clavigera GcABC-G1 deletion mutant was designated mutant Δgcabc-g1.
as §2

The subject of another assay is O. piceae. The assay can be described thus: Growth on YNB with quinic acid as sole carbon source. Format: cell-based, Ophiostoma piceae. The following applies: YNB media. From the text:
The cluster contains seven genes that include a quinate permease, two regulatory genes, one acting as an activator and the other as a repressor, and the four genes of the quinate/shikamate catabolic pathway (Asch et al. (1991) Mol Gen Genet 230(3):337-344, Giles et al. J Hered 82(1):1-7). The latter four catabolic genes (OPP_08735 to OPP_08738) reveal that O. piceae uses quinic acid in wood as a carbon source. While this gene cluster is reported in many fungi, this gene cluster was not identified in G. clavigera. […] Finally, a secreted lipase (OPP_00605) with a predicted triglycerides degradation activity was identified; its abundance relative to the control mannose was at least 50-fold.

The subject of assay [6] is G. clavigera WT. The assay can be described thus: Growth on MEA with individual diterpenes. It counts as cell-based, Grosmannia clavigera. The following applies: individual diterpene in MEA (0.1% per FIG. 8), pH ~8.0. Here is the method: (§6) Growth rates were examined for G. clavigera WT and the mutant Δgcabc-g1 grown on MEA in the presence or absence of 200 μL of abietic acid, dehydroabietic acid and isopimaric acid as described in Example 3.A.2. Each diterpene was dissolved in a basic NaOH solution before being added into the MEA medium; the final pH of the medium was ˜8.0. Growth rates were calculated daily (mm/day). The results are shown in FIG. 8, which indicates growth rate in mm/24 hr for the average of three replicates. Error bar represents standard deviation.

Assay [7] concerns mutant Δgcabc-g1. The assay is described as follows: Growth on MEA with individual diterpenes. Format: cell-based, Grosmannia clavigera. The following applies: individual diterpene in MEA (0.1% per FIG. 8), pH ~8.0. Here is the method:
as §6

The mark [8] stands for this setting: MEA, 200 μL monoterpene, 6 days.

Take `C=C(C)C1CC=C(C)CC1` (single isomer, unassigned; (+)) [(+)-limonene, R-(+)-limonene]: the “growth delay of G. clavigera WT” value in the assay on G. clavigera WT [1] was determined as 1 days. In addition, the “Observation (A) Gc spore survival” value in assay [2] (GcABC-G1-dependent difference, Gc versus Δgcabc-g1) is “+ (Difference between with and without GcABC-G1 is less than 50%, P-value < 0.01)”. The “spore germination, mutant Δgcabc-g1” value in assay [2] (setting [8]) is “completely prevent spore germination”. Further, the “spore germination partially reduced, G. clavigera” value in [3] is listed as around 70%. Also, the “growth with monoterpene as sole carbon source, wildtype G. clavigera” value (from here on “growth with monoterpene”) in the assay with Wildtype G. clavigera is reported as “grew”. In addition, the “fate of mutant Δgcabc-g1 on YNB with monoterpene” value in the assay with mutant Δgcabc-g1 [4] (10 μL) is given as “survived, but did not grow”. Besides, in the assay on mutant Δgcabc-g1 [4] (200 μL), the “fate of mutant Δgcabc-g1 on YNB with monoterpene” value was “killed”. Besides, in the assay with Sc-ABC, the “Observation (B) Transformed Sc survival” value was “+++ (Difference between with and without GcABC-G1 is more than 50%, P-value < 0.01)”; the “relative inhibition of the yeast GcABC-G1 transformant by individual monoterpenoids” value is reported as “least inhibitory effect”; the “Sc-ABC cells survived relative to Sc-V” value is on record as “approximately 7 times”. In addition, in the assay with mutant Δgcabc-g1 [5], the “growth delay of mutant Δgcabc-g1” value was 2 days and the “growth rate of mutant Δgcabc-g1 lower than G. clavigera WT” value was determined as 52%.

As to `O=C(O)[C@]1(O)C[C@@H](O)[C@@H](O)[C@H](O)C1` [quinic acid], in the assay with O. piceae, the “growth of O. piceae with quinic acid as sole carbon source” value is listed as “grows”.

For `CC1=CCC2CC1C2(C)C` (racemic) [α-pinene], in the assay with G. clavigera WT [1], the “growth delay of G. clavigera WT” value is given as “not” and the “fungal growth rate, G. clavigera WT” value is reported as around 7 mm/day. Further, the “spore germination reduced, mutant Δgcabc-g1” value in [2] (MEA, 200 μL monoterpene, 6 days, relative to non-treated control) stood at 30%. In addition, the “Observation (A) Gc spore survival” value in [2] ({}) is “+ (Difference between with and without GcABC-G1 is less than 50%, P-value < 0.01)”. Besides, in [3], the “spore germination inhibition, G. clavigera” value was “not inhibited”. In addition, the “growth with monoterpene” value with Wildtype G. clavigera is given as “not able to utilize”. Also, the “Sc-ABC cells survived relative to Sc-V” value in the assay on Sc-ABC is “not significantly different”. For the same molecule, in the assay on mutant Δgcabc-g1 [5], the “growth delay of mutant Δgcabc-g1” value was 1 days and the “fungal growth rate, mutant Δgcabc-g1” value is on record as around 7 mm/day.

`CC(C)C1=CC2=CC[C@@H]3[C@](C)(CCC[C@@]3(C)C(=O)O)[C@H]2CC1` [abietic acid]: the “growth inhibition, G. clavigera WT” value with G. clavigera WT [6] is given as “only slightly inhibited growth”. The “growth inhibition, mutant Δgcabc-g1” value in the assay with mutant Δgcabc-g1 [7] was “only slightly inhibited growth”.

Consider `C=C1CC[C@H]2C[C@@H]1C2(C)C` [(−)-β-pinene, (1S)-(−)-β-Pinene], for which the “spore germination, mutant Δgcabc-g1” value in assay [2] (setting [8]) is listed as “completely prevent spore germination”. The “Observation (A) Gc spore survival” value in [2] ({}) is “+ (Difference between with and without GcABC-G1 is less than 50%, P-value < 0.01)”. Besides, in [3], the “spore germination partially reduced, G. clavigera” value is around 70%. Besides, the “growth with monoterpene” value in the assay on Wildtype G. clavigera is “not able to utilize”. Besides, in the assay on Sc-ABC, the “Observation (B) Transformed Sc survival” value was “+++ (Difference between with and without GcABC-G1 is more than 50%, P-value < 0.01)”; the “relative inhibition of the yeast GcABC-G1 transformant by individual monoterpenoids” value was “strongest inhibition effect”; the “Sc-ABC cells survived relative to Sc-V” value is recorded as around 3 times. In addition, in the assay with mutant Δgcabc-g1 [5], the “growth delay of mutant Δgcabc-g1” value is given as “up to 3 days” and the “growth rate of mutant Δgcabc-g1 lower than G. clavigera WT” value is listed as 60%.

Consider `CC1=CCC2C(C1)C2(C)C` (centres unmarked) [3-carene], for which, in the assay on G. clavigera WT [1], the “growth delay of G. clavigera WT” value was 1 days and the “fungal growth rate, G. clavigera WT” value was 5 to 6 mm/day. Also, the “spore germination, mutant Δgcabc-g1” value in assay [2] (setting [8]) is recorded as “completely prevent spore germination”. Besides, in assay [2] ({}), the “Observation (A) Gc spore survival” value was “+++ (Difference between with and without GcABC-G1 is more than 50%, P-value < 0.01)”. For the same molecule, the “spore germination inhibition, G. clavigera” value in assay [3] is listed as “not inhibited”. For the same molecule, in the assay on Sc-ABC, the “Observation (B) Transformed Sc survival” value is “+++ (Difference between with and without GcABC-G1 is more than 50%, P-value < 0.01)”; the “Sc-ABC cells survived relative to Sc-V” value is recorded as “approximately 30 times”. In the assay on mutant Δgcabc-g1 [5], the “growth delay of mutant Δgcabc-g1” value is 2 days and the “fungal growth rate, mutant Δgcabc-g1” value is 5 to 6 mm/day.

For `C=C[C@@]1(C)CC[C@H]2C(=CC[C@@H]3[C@]2(C)CCC[C@@]3(C)C(=O)O)C1` [isopimaric acid], the “growth inhibition, G. clavigera WT” value in the assay with G. clavigera WT [6] is on record as “only slightly inhibited growth”. For the same molecule, the “growth inhibition, mutant Δgcabc-g1” value with mutant Δgcabc-g1 [7] is recorded as “only slightly inhibited growth”.
